The subject of one data set is Hordeum vulgare (barley). The data set can be described thus: Safener action on barley, post-emergence greenhouse test, visual damage assessment. As to conditions: no safener.
The test system of data set [1] is Triticum aestivum (wheat). The data set can be described thus: Safener action on wheat, post-emergence greenhouse test, visual damage assessment. The data set is classed as in vivo. As to conditions: no safener, 4-leaf stage, assessment after 4 weeks.
Description: (§1) Seeds of wheat and barley were placed in sandy loam soil in plastic pots, raised to the 3- to 4-leaf stage in a greenhouse and then treated successively with the compounds according to the invention and the herbicides using the post-emergence method. The herbicides and the compounds of the formula I were applied in the form of aqueous suspensions or emulsions at an application rate of 300 l/ha (converted). 3-4 weeks after the treatment, the plants were assessed visually for damage of any type caused by the herbicides applied, in particular the extent of lasting growth inhibition being taken into account. The assessment was made in percentages compared with untreated controls.
(§2) Test conditions: Application at the 4-leaf stage; assessment after 4 weeks; 4 replications
Data set [2] deals with Triticum durum (hard wheat). Put plainly: Safener action on hard wheat, post-emergence greenhouse test, visual damage assessment. As to conditions: no safener, 4-leaf stage, assessment after 4 weeks. It is filed as in vivo.
Description: as §1, §2
A further data set has as its system Oryza sativa (rice). Put plainly: Safener action on rice (flooded pots), damage assessment. The data set is classed as in vivo. As to conditions: herbicide 300 g of a.i./ha, no safener; 3-leaf stage, assessment after 3 weeks. How it is done: Rice was sown in plastic pots and raised in a greenhouse under optimum growth conditions. After emergence, the pots were filled with water to 2 cm from the top, and this flooding level was maintained throughout the experiment. At the 3- to 4-leaf stage, the plants were then treated with the herbicides and the compounds of the formula I. 3 weeks after treatment, the plants were assessed for damage of any type caused by the herbicides, in particular the extent of lasting growth inhibition and thinning being considered.

Data set [3] deals with corn (Zea mays). The data set can be described thus: Safener action on corn, post-emergence test, visual damage assessment. The data set is classed as in vivo. Conditions: no safener, 4-leaf stage, assessment after 4 weeks; for Damage [%] in corn varieties: Felix: variety Felix; for Damage [%] in corn varieties: Mutin: variety Mutin; for Damage [%] in corn varieties: Dea: variety Dea. The text has this: Corn plants, weed and weed grasses were raised to the 4- to 5-leaf stage in plastic pots outside or in the greenhouse and treated successively with herbicides and compounds of the formula I according to the invention using the post-emergence method. […] The assessment was made in percent compared with untreated controls.

The test system of data set [4] is corn (Zea mays). Described as above. It is filed as in vivo. As to conditions: herbicide 75 g of a.i./ha, no safener; 3-leaf stage, assessment after 3 weeks.
Data set [5] deals with Oryza sativa (transplanted). The data set can be described thus: Safener action on transplanted rice, application by watering, visual damage assessment. It is filed as in vivo. As to conditions: herbicide 450 g of a.i./ha, no safener, 3 days after transplanting, assessed 4 weeks after application. How it is done:
Rice was sown in sandy soil in pots in a greenhouse and raised to a growth height of 24-25 cm. The rice was then transplanted into a water-covered soil and, 3 days after transplanting, treated with a herbicide or a herbicide/safener combination by watering. 4 weeks after application, plant damage was assessed visually compared with untreated controls (results see Table 9).

This is an account of results in US6482947B1, “Substituted (hetero) aryl compounds, process for their preparation, agents containing them and their use as safeners” (priority 1992, dated 2002).

Description for Hordeum vulgare (barley): as §1, §2
Test conditions: Application at the 3-leaf stage;
assessment after 2-3 weeks; 4 replications

In the case of `CCOC(=O)[C@@H](C)Oc1ccc(Oc2nc3ccc(Cl)cc3o2)cc1` [H1, fenoxaprop-P-ethyl], the “Damage [%] HV” value in the data set with Hordeum vulgare (barley) (herbicide 100 g of a.i./ha, 4-leaf stage, assessment after 4 weeks) is listed as 80%; in the data set on Hordeum vulgare (barley) (herbicide 200 g of a.i./ha, 3-leaf stage, assessment after 2-3 weeks), 85%; in the data set with Hordeum vulgare (barley) (herbicide 200 g of a.i./ha, 4-leaf stage, assessment after 4 weeks), 90%; in the data set on Hordeum vulgare (barley) (herbicide 400 g of a.i./ha, 4-leaf stage, assessment after 4 weeks), 98%. For the same compound, the “Damage [%] TA” value in data set [1] (herbicide 100 g of a.i./ha) stood at 10%; in data set [1] (herbicide 200 g of a.i./ha), 30%; in data set [1] (herbicide 400 g of a.i./ha), 40%. Besides, the “Damage [%] TD” value in data set [2] (herbicide 100 g of a.i./ha) came to 95%; in data set [2] (herbicide 200 g of a.i./ha) it was 95%; in data set [2] (herbicide 400 g of a.i./ha) it was 98%. Besides, in the data set with Oryza sativa (rice), the “Damage [%] ORSA” value is recorded as 80%.

With `COC(=O)C(C)Oc1ccc(Oc2ccc(Cl)cc2Cl)cc1` (stereo not shown) [H2, diclofop-methyl], the “Damage [%] HV” value in the data set on Hordeum vulgare (barley) (herbicide 900 g of a.i./ha, 4-leaf stage, assessment after 4 weeks) is listed as 10%; in the data set on Hordeum vulgare (barley) (herbicide 1800 g of a.i./ha, 4-leaf stage, assessment after 4 weeks) it was 40%.

In the case of `COC(=O)c1ccc(I)cc1S(=O)(=O)NC(=O)Nc1nc(C)nc(OC)n1.[Na]` [H3, methyl 4-iodo-2-[3-(4-methoxy-6-methyl-1,3,5-triazin-2-yl)ureidosulfonyl]benzoate, sodium salt], the “Damage [%] TA” value in data set [1] (herbicide 12 g of a.i./ha) stood at 15%; in data set [1] (herbicide 25 g of a.i./ha), 80%; in data set [1] (herbicide 50 g of a.i./ha) it was 70%.

As to `COc1cc(OC)nc(Oc2cccnc2C(=O)OCc2ccccc2)n1` [H4, benzyl 3-(4,6-dimethoxypyrimidin-2-yloxy)pyridine-2-carboxylate], the “Damage to corn [%] Alois variety” value in the data set on corn (Zea mays) [3] (herbicide 38 g of a.i./ha) came out at 20%; in the data set with corn (Zea mays) [3] (herbicide 75 g of a.i./ha), 40%; in the data set on corn (Zea mays) [3] (herbicide 150 g of a.i./ha), 55%; with corn (Zea mays) [3] (herbicide 300 g of a.i./ha) it was 60%. For the same compound, the “Damage to corn [%] Felix variety” value in the data set on corn (Zea mays) [3] (herbicide 38 g of a.i./ha) is given as 0%; with corn (Zea mays) [3] (herbicide 75 g of a.i./ha) it was 30%; in the data set on corn (Zea mays) [3] (herbicide 150 g of a.i./ha) it was 50%; in the data set on corn (Zea mays) [3] (herbicide 300 g of a.i./ha), 60%.

For `COC(=O)c1sccc1NC(=O)Nc1nc(C)nc(OC)n1` [H7, 1-(2-methoxycarbonylthiophen-3-yl)-3-(4-methoxy-6-methyl-1,3,5-triazin-2-yl)urea], the “Damage [%] in corn varieties: Felix” value is 0% in the data set on corn (Zea mays) [3] (herbicide 8 g a.i./ha), 15% with corn (Zea mays) [3] (herbicide 15 g a.i./ha), 40% in the data set on corn (Zea mays) [3] (herbicide 30 g a.i./ha) and 75% in the data set on corn (Zea mays) [3] (herbicide 60 g a.i./ha). Moreover, the “Damage [%] in corn varieties: Mutin” value with corn (Zea mays) [3] (herbicide 8 g a.i./ha) came to 5%; with corn (Zea mays) [3] (herbicide 15 g a.i./ha), 10%; in the data set with corn (Zea mays) [3] (herbicide 30 g a.i./ha) it was 30%; in the data set with corn (Zea mays) [3] (herbicide 60 g a.i./ha), 70%.

As for `COc1cc(OC)nc(NC(=O)NS(=O)(=O)c2ncccc2N(C)S(C)(=O)=O)n1` [H8, 3-(4,6-dimethoxypyrimidin-2-yl)-1-[3(-N-methyl-N-methylsulfonylamino)-2-pyridylsulfonyl]urea], the “Damage [%] in corn varieties: Dea” value in the data set on corn (Zea mays) [3] (herbicide 25 g a.i./ha) worked out at 0%; in the data set on corn (Zea mays) [3] (herbicide 50 g a.i./ha) it was 0%; in the data set on corn (Zea mays) [3] (herbicide 100 g a.i./ha), 10%; in the data set on corn (Zea mays) [3] (herbicide 200 g a.i./ha) it was 35%. The “Damage [%] in corn varieties: Felix” value in the data set on corn (Zea mays) [3] (herbicide 25 g a.i./ha) is recorded as 25%; in the data set with corn (Zea mays) [3] (herbicide 50 g a.i./ha), 55%; in the data set on corn (Zea mays) [3] (herbicide 100 g a.i./ha), 65%; in the data set with corn (Zea mays) [3] (herbicide 200 g a.i./ha) it was 70%. The “Damage [%] in corn varieties: Mutin” value with corn (Zea mays) [3] (herbicide 25 g a.i./ha) amounted to 15%; in the data set with corn (Zea mays) [3] (herbicide 50 g a.i./ha) it was 30%; in the data set on corn (Zea mays) [3] (herbicide 100 g a.i./ha), 60%; in the data set with corn (Zea mays) [3] (herbicide 200 g a.i./ha) it was 65%. In the data set with corn (Zea mays) [4], the “Damage in corn [%] Felix variety” value was 75%.

In the case of `COP(=S)(OC)SCC(=O)N(c1ccc(Cl)cc1)C(C)C` [H9, anilofos], the “Damage [%] ORSA-T” value in data set [5] is 50%.
